# Results taken from patent US20090054403A1, “Treatment of Post-Traumatic Stress Disorder” (priority 2007, published 2009).
# Legend:
# bovine DBH = molecular target: T1, bovine DBH (Bos taurus, UniProt P15101); assay: Bovine DBH inhibition kinetics, [14C]tyramine radioactive method; format: biochemical
# T1 construct: Bovine DBH from adrenal glands was obtained from Sigma Chemicals; purchased Sigma Chemicals (St Louis, Mo.); host or cells: bovine adrenal glands
# Method: Enzyme Assay by Radioactive Method. Enzymatic activity was assayed using [^14C]tyramine as substrate and a C18 column to separate the product. The assay was performed in […] volume containing 100 mM NaAc, pH 5.2, 10 mM fumaric acid, 0.5 μM CuSO4, 4 mM ascorbic acid, 0.1 mg/ml catalase and various concentrations of tyramine. The total counts of each reaction was ˜15,000 cpm. Bovine DBH (0.18 ng for each reaction) was mixed with tyramine and inhibitor in the reaction buffer at 37° C. The reaction was initiated by the addition of ascorbate/catalase mixture and was incubated at 37° C. for 30 minutes. The reaction was stopped by the addition of […] of 25 mM EDTA, 50 mM KH2PO4, pH 2.3. Entire mixture was loaded to a C18 light load column (two combined into one) that was pre-washed with MeOH and equilibrated with 50 mM KH2PO4, pH 2.3. Elution into scintillation vials was carried out with 1 ml of KH2PO4, pH 2.3 buffer twice, followed by 2 ml of the same buffer. ReadySafe scintillation fluid (16 ml) was added to the scintillation vials and the samples were counted for ^14C radioactivity.
# Nepicastat concentrations of 0, 1, 2, 4, 8 nM were used to study inhibition kinetics at the following tyramine concentrations: 0.5, 1, 2, 3, 4 mM. […] Km′ was calculated from the slopes and Y intercepts and linear regression was used to obtain Ki value.
# [1] = Tissue and plasma compound levels in beagle dogs, 10, 30, 60 mg/kg/day; format: in vivo
# Method: Thirty-two male beagle dogs, weighing 10-12 kg, were randomly assigned to one of the following 4 treatment groups (n=8 per group): nepicastat at 0 mg/kg/day (placebo), 10 mg/kg/day (5 mg/kg b.i.d.), 30 mg/kg (15 mg/kg b.i.d.), or 60 mg/kg/day (30 mg/kg b.i.d.). Dog numbers 1-16 were assigned as dose group A and dog numbers 17-32 as dose group B. The terminal surgery for tissue harvest was performed over 2 days with 16 animals studied per day. Two or 3 days before the first compound administration each dog was weighed and skin regions overlying both cephalic, saphenous and jugular veins were shaved. Dosing consisted of oral administration of one capsule with the second given 8-10 hr later. Dogs were dosed as scheduled on days 1-3. On day 4, prior to the AM dose, 3 ml of blood were obtained from a jugular vein for determination of baseline plasma compound levels. […]
# Ventricles were homogenized in 50 mM Tris-HCl, 5 mM Na2EDTA buffer (pH 7.4 at 4° C.) using a Polytron P-10 tissue disrupter (setting 10, 2×15 second bursts). […] Aquasol scintillation fluid was added to each vial and radioactivity determined by liquid scintillation counting. Saturation binding isotherms were analyzed after first converting total ligand concentrations to free ligand concentrations (total−bound=free). […]
# plasma renin activity = assay: Plasma renin activity after 5 days oral dosing; format: in vivo, SHR; settings: 30 and 100 mg/kg/d p.o. for 5 days
# blood pressure [2] = assay: Radio-telemetry blood pressure in SHR, up to 30 days; format: in vivo
# blood pressure [3] = assay: Blood pressure in conscious, restrained normotensive rats; format: in vivo, Wistar-Kyoto rats; settings: 10 mg/kg, 4 hours after dosing
# T1 sequence (P15101 whole entry): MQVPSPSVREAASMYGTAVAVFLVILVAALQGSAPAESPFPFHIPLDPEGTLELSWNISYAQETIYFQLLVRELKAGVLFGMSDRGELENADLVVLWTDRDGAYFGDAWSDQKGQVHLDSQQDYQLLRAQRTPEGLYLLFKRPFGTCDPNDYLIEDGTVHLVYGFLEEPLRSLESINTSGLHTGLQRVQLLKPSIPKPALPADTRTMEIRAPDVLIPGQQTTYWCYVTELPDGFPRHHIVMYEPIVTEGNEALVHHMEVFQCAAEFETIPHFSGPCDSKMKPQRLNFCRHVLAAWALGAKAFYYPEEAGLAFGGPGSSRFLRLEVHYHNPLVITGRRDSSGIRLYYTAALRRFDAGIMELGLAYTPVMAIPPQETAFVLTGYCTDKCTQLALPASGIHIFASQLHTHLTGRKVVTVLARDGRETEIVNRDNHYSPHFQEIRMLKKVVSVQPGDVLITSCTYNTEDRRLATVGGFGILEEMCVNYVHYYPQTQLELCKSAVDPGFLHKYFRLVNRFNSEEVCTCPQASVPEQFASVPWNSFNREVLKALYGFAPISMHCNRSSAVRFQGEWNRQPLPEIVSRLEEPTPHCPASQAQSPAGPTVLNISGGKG
smiles,measurement,setting,value
"Cl.NCc1c[nH]c(=S)n1[C@H]1CCc2c(F)cc(F)cc2C1 [nepicastat, (S)-5-Aminomethyl-1-(5,7-difluoro-1,2,3,4-tetrahydronaphth-2-yl)-2,3-dihydro-2-thioxo-1H-imidazole hydrochloride]",type of inhibition,"bovine DBH; nepicastat 1-8 nM, tyramine 0.5-4 mM",competitive with tyramine
same,Ki,"bovine DBH; vs tyramine, linear regression of apparent Km",4.7 ± 0.4 nM
same,dose proportionality of concentration in plasma (Day 4) and tissue and plasma (Day 5),"[1]; 10, 30, 60 mg/kg/day, exceptions kidney medulla, plasma day 4",dose-proportional
same,levels in all tissues examined relative to plasma,[1]; Day 5,higher than those in plasma
same,plasma renin activity,plasma renin activity,did not alter plasma renin activity
same,peak decrease in blood pressure,blood pressure [2]; 30 mg/kg/d,−20 mmHg
same,peak decrease in blood pressure,blood pressure [2]; 100 mg/kg/d,−42 mmHg
same,effect on blood pressure,blood pressure [2]; 3 and 10 mg/kg/d,no significant effects
same,effect on blood pressure,blood pressure [2]; 30 and 100 mg/kg/d for 30 days,significantly lowered blood pressure
same,effect on blood pressure of nepicastat 30 mg/kg combined with enalapril 1 mg/kg p.o.,blood pressure [2]; 30 days of dosing,potentiation of the antihypertensive effects
same,"left ventricular mass, nepicastat 30 mg/kg combined with enalapril 1 mg/kg p.o.",blood pressure [2]; 30 days of dosing,significant reduction in left ventricular mass
same,motor activity,blood pressure [2]; 30 days of dosing,unaffected
same,decrease in pressure,blood pressure [3],−13 mmHg
